Experimental findings from patent US20200354426A1 (MEDIMMUNE LIMITED, priority 2016, published 2020) are described below.

Common to all, as to assay: cAMP activity assay in assay medium (assay 1)
Common to all, as to type: cell-based
What all share (details): assay medium

The target in one test is T1, Human GIPr (Homo sapiens, UniProt P48546).
T1 construct: expressed in transfected cells
T1 sequence (P48546 22-466): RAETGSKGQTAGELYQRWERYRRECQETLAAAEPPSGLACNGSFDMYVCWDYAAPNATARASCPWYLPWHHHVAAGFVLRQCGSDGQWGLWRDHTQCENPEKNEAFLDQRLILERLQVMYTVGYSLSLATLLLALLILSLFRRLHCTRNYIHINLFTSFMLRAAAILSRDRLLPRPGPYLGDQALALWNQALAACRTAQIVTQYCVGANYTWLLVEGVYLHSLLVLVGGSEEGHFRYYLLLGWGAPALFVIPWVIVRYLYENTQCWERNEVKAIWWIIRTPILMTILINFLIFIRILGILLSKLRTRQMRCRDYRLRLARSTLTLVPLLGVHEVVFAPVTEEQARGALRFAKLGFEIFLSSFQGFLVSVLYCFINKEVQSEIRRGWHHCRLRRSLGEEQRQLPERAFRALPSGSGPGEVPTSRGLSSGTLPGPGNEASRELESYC
The source says: (§1) Biological Activity of Peptides in Cell-Based cAMP Activity Assay (Assay 1):
(§2) All sample dilutions were made in duplicate.

The next test deals with T2, Human GlucR (Homo sapiens, UniProt P47871).
T2 construct: expressed in transfected cells
T2 sequence (P47871 26-477): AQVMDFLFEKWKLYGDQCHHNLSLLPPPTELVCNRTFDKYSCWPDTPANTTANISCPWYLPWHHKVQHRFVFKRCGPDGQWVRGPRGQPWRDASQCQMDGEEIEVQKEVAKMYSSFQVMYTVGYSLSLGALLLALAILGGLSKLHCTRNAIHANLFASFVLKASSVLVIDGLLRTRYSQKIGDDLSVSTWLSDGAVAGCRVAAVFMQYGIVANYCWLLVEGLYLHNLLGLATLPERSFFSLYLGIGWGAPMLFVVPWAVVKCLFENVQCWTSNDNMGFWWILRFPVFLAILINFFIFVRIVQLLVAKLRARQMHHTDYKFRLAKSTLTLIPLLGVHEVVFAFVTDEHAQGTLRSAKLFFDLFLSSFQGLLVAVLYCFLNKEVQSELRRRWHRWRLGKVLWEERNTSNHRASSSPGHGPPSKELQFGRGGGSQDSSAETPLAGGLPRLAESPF
Text: as §1, §2

Another test addresses Human GLP1R (Homo sapiens, UniProt P43220). Set-up: expressed in transfected cells.
Text: as §1, §2

The mark [1] stands for this setting: Table 3, C-terminal acid peptides, read-out: Human GIPr EC50.
Where [2] appears, read: Table 3, C-terminal acid peptides, read-out: Human GlucR EC50.
Setting [3] is: Table 3, C-terminal acid peptides, read-out: Human GLP1R EC50.

Several values for one entry are separate records, joined by “and”; a condition that tells them apart may be missing. Equal values may be shown once. Read-outs that look alike come from different tables or passages of the source. Numbered stars: 1 amine (or outer) side, 2 acyl side, 3 side chain; on linkers, the order of the positions; unused ones are H or OH. Side chains are listed from the residue outwards. Peptide text beside a SMILES is read from it. * marks the point of attachment. γGlu = O=C(O)[C@H](CCC(=O)[*:2])N[*:1]; Palmitoyl = CCCCCCCCCCCCCCCC(=O)*

Chain of Human GLP1R (P43220 24-463): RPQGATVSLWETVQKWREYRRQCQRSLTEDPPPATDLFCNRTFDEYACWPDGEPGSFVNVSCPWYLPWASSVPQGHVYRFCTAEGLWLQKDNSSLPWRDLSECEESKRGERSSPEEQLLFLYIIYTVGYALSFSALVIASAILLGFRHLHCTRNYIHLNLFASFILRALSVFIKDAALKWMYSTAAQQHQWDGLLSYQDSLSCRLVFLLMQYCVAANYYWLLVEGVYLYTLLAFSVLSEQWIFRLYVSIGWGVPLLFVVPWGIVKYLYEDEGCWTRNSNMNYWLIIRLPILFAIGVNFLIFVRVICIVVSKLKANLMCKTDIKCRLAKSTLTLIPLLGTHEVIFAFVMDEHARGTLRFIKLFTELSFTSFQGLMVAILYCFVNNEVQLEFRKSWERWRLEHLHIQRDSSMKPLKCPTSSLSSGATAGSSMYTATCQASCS

`CCCCCCCCCCCCCCCC(=O)N[C@@H](CCC(=O)NCCCC[C@H](NC(=O)[C@H](CC(=O)O)NC(=O)[C@H](CO)NC(=O)[C@@H](NC(=O)[C@H](Cc1ccccc1)NC(=O)[C@@H](NC(=O)CNC(=O)[C@H](CCC(N)=O)NC(=O)[C@H](CO)NC(=O)[C@@H](N)Cc1c[nH]cn1)[C@@H](C)O)[C@@H](C)O)C(=O)N[C@@H](CO)C(=O)N[C@@H](CCCCN)C(=O)N[C@@H](Cc1ccc(O)cc1)C(=O)N[C@@H](CC(C)C)C(=O)N[C@@H](CCC(=O)O)C(=O)NCC(=O)N[C@@H](CCC(N)=O)C(=O)N[C@@H](C)C(=O)N[C@@H](C)C(=O)N[C@@H](CCCCN)C(=O)N[C@@H](CCC(=O)O)C(=O)N[C@@H](Cc1ccccc1)C(=O)N[C@H](C(=O)N[C@@H](C)C(=O)N[C@@H](Cc1c[nH]c2ccccc12)C(=O)N[C@@H](CC(C)C)C(=O)N[C@@H](CCC(=O)O)C(=O)N[C@@H](CCCCN)C(=O)NCC(=O)N[C@@H](CCCNC(=N)N)C(=O)O)[C@@H](C)CC)C(=O)O` [Peptide G934]: the concentration giving a half-maximal response (EC50) came out at 3.6 nM at Human GIPr (setting [1]), 0.0063 nM at Human GlucR (setting [2]) and 0.018 nM on Human GLP1R (setting [3]).

On to `CCCCCCCCCCCCCCCC(=O)N[C@@H](CCC(=O)NCCCC[C@H](NC(=O)[C@H](CC(=O)O)NC(=O)[C@H](CO)NC(=O)[C@@H](NC(=O)[C@H](Cc1ccccc1)NC(=O)[C@@H](NC(=O)CNC(=O)[C@H](CCC(N)=O)NC(=O)[C@H](CO)NC(=O)[C@@H](N)Cc1c[nH]cn1)[C@@H](C)O)[C@@H](C)O)C(=O)N[C@@H](CO)C(=O)N[C@@H](CO)C(=O)N[C@@H](Cc1ccc(O)cc1)C(=O)N[C@@H](CC(C)C)C(=O)N[C@@H](CC(=O)O)C(=O)N[C@@H](CO)C(=O)N[C@@H](CCCNC(=N)N)C(=O)N[C@@H](CO)C(=O)N[C@@H](C)C(=O)N[C@@H](CCCNC(=N)N)C(=O)N[C@@H](CC(=O)O)C(=O)N[C@@H](Cc1ccccc1)C(=O)N[C@H](C(=O)N[C@@H](C)C(=O)N[C@@H](Cc1c[nH]c2ccccc12)C(=O)N[C@@H](CC(C)C)C(=O)N[C@@H](CCC(=O)O)C(=O)N[C@@H](C)C(=O)NCC(=O)NCC(=O)O)C(C)C)C(=O)O` [Peptide G973], for which the values for the half-maximal effective concentration (EC50) on Human GIPr (setting [1]), at Human GlucR (setting [2]) and at Human GLP1R (setting [3]) were 47 nM, 0.0089 nM and 0.012 nM, respectively.

With `CC(C)C[C@H](NC(=O)[C@H](Cc1ccc(O)cc1)NC(=O)[C@H](CCCCN)NC(=O)[C@H](CO)NC(=O)[C@H](Cc1ccc(O)cc1)NC(=O)[C@H](CC(=O)O)NC(=O)[C@H](CO)NC(=O)[C@@H](NC(=O)[C@H](Cc1ccccc1)NC(=O)[C@@H](NC(=O)CNC(=O)[C@H](CCC(N)=O)NC(=O)[C@H](CO)NC(=O)[C@@H](N)Cc1c[nH]cn1)[C@@H](C)O)[C@@H](C)O)C(=O)N[C@@H](CC(=O)O)C(=O)N[C@@H](CO)C(=O)N[C@@H](CCCNC(=N)N)C(=O)N[C@@H](CCCNC(=N)N)C(=O)N[C@@H](C)C(=O)N[C@@H](CCC(N)=O)C(=O)N[C@@H](CC(=O)O)C(=O)N[C@@H](Cc1ccccc1)C(=O)N[C@H](C(=O)N[C@@H](CCC(N)=O)C(=O)N[C@@H](Cc1c[nH]c2ccccc12)C(=O)N[C@@H](CC(C)C)C(=O)N[C@H](C(=O)N[C@@H](CCCNC(=N)N)C(=O)NCC(=O)NCC(=O)NCC(=O)NCC(=O)NCC(=O)NCC(N)=O)C(C)C)C(C)C` [g315], the EC50 on Human GIPr (Table 4, read-out: hGIPR EC50) was 19.7 nM; at Human GlucR (Table 4, read-out: hGlucR EC50), 0.00504 nM; at Human GLP1R (Table 4, read-out: hGLP1R EC50) it was 0.0273 nM.

Regarding `CCCCCCCCCCCCCCCC(=O)N[C@@H](CCC(=O)NCCCC[C@H](NC(=O)[C@H](CO)NC(=O)[C@H](CC(=O)O)NC(=O)[C@H](CC(C)C)NC(=O)[C@H](Cc1ccc(O)cc1)NC(=O)[C@H](CCCCN)NC(=O)[C@H](CO)NC(=O)[C@H](Cc1ccc(O)cc1)NC(=O)[C@H](CC(=O)O)NC(=O)[C@H](CO)NC(=O)[C@@H](NC(=O)[C@H](Cc1ccccc1)NC(=O)[C@@H](NC(=O)CNC(=O)[C@H](CCC(N)=O)NC(=O)[C@H](CO)NC(=O)[C@@H](N)Cc1c[nH]cn1)[C@@H](C)O)[C@@H](C)O)C(=O)N[C@@H](CCCNC(=N)N)C(=O)N[C@@H](C)C(=O)N[C@@H](CCC(=O)O)C(=O)N[C@@H](CC(=O)O)C(=O)N[C@@H](Cc1ccccc1)C(=O)N[C@H](C(=O)N[C@@H](CCC(N)=O)C(=O)N[C@@H](Cc1c[nH]c2ccccc12)C(=O)N[C@@H](CC(C)C)C(=O)N[C@H](C(=O)N[C@@H](C)C(=O)NCC(=O)NCC(N)=O)C(C)C)C(C)C)C(=O)O` [g599], the EC50 on Human GIPr (Table 4, read-out: hGIPR EC50) was 113 nM and 112 nM; at Human GlucR (Table 4, read-out: hGlucR EC50), 0.0962 nM and 0.0698 nM.

For the molecule `CCCCCCCCCCCCCCCC(=O)N[C@@H](CCC(=O)NCCCC[C@H](NC(=O)[C@H](CC(=O)O)NC(=O)[C@H](CO)NC(=O)[C@@H](NC(=O)[C@H](Cc1ccccc1)NC(=O)[C@@H](NC(=O)CNC(=O)[C@H](CCC(N)=O)NC(=O)[C@H](CO)NC(=O)[C@@H](N)Cc1c[nH]cn1)[C@@H](C)O)[C@@H](C)O)C(=O)N[C@@H](CO)C(=O)N[C@@H](CCCCN)C(=O)N[C@@H](Cc1ccc(O)cc1)C(=O)N[C@@H](CC(C)C)C(=O)N[C@@H](CC(=O)O)C(=O)N[C@@H](CO)C(=O)N[C@@H](CCCNC(=N)N)C(=O)N[C@@H](CCCNC(=N)N)C(=O)N[C@@H](C)C(=O)N[C@@H](CCC(N)=O)C(=O)N[C@@H](CC(=O)O)C(=O)N[C@@H](Cc1ccccc1)C(=O)N[C@H](C(=O)N[C@@H](CCC(N)=O)C(=O)N[C@@H](Cc1c[nH]c2ccccc12)C(=O)N[C@@H](CC(C)C)C(=O)N[C@@H](CCC(=O)O)C(=O)N[C@@H](C)C(=O)NCC(=O)NCC(N)=O)C(C)C)C(=O)O` [g717] (H-HSQGTFTSDK([γGlu-Palmitoyl])SKYLDSRRAQDFVQWLEAGG-NH2; N-terminus assumed), the EC50 is 1.48 nM on Human GIPr (Table 4, read-out: hGIPR EC50) and 0.00577 nM on Human GLP1R (Table 4, read-out: hGLP1R EC50).

Regarding `CCCCCCCCCCCCCCCC(=O)N[C@@H](CCC(=O)NCCCC[C@H](NC(=O)[C@H](Cc1ccc(O)cc1)NC(=O)[C@H](CCCCN)NC(=O)[C@H](CO)NC(=O)[C@H](Cc1ccc(O)cc1)NC(=O)[C@H](CC(=O)O)NC(=O)[C@H](CO)NC(=O)[C@@H](NC(=O)[C@H](Cc1ccccc1)NC(=O)[C@@H](NC(=O)CNC(=O)[C@H](CCC(N)=O)NC(=O)[C@H](CO)NC(=O)[C@@H](N)Cc1c[nH]cn1)[C@@H](C)O)[C@@H](C)O)C(=O)N[C@@H](CC(=O)O)C(=O)N[C@@H](CO)C(=O)N[C@@H](CCCNC(=N)N)C(=O)N[C@@H](CCCNC(=N)N)C(=O)N[C@@H](C)C(=O)N[C@@H](CCCNC(=N)N)C(=O)N[C@@H](CC(=O)O)C(=O)N[C@@H](Cc1ccccc1)C(=O)N[C@H](C(=O)N[C@@H](C)C(=O)N[C@@H](Cc1c[nH]c2ccccc12)C(=O)N[C@@H](CC(C)C)C(=O)N[C@@H](CCC(=O)O)C(=O)N[C@@H](C)C(=O)NCC(=O)NCC(N)=O)C(C)C)C(=O)O` [g780] (H-HSQGTFTSDYSKYK([γGlu-Palmitoyl])DSRRARDFVAWLEAGG-NH2; N-terminus assumed), the EC50 turned out to be 64 nM on Human GIPr (Table 4, read-out: hGIPR EC50) and 0.012 nM at Human GLP1R (Table 4, read-out: hGLP1R EC50).

On to `CCCCCCCCCCCCCCCC(=O)N[C@@H](CCC(=O)NCCCC[C@H](NC(=O)[C@H](CC(=O)O)NC(=O)[C@H](CO)NC(=O)[C@@H](NC(=O)[C@H](Cc1ccccc1)NC(=O)[C@@H](NC(=O)CNC(=O)[C@H](CCC(N)=O)NC(=O)[C@H](CO)NC(=O)[C@@H](N)Cc1c[nH]cn1)[C@@H](C)O)[C@@H](C)O)C(=O)N[C@@H](CO)C(=O)N[C@@H](CCCCN)C(=O)N[C@@H](Cc1ccc(O)cc1)C(=O)N[C@@H](CC(C)C)C(=O)N[C@@H](CC(=O)O)C(=O)N[C@@H](CO)C(=O)N[C@@H](CCC(=O)O)C(=O)N[C@@H](CCCNC(=N)N)C(=O)N[C@@H](C)C(=O)N[C@@H](CCCNC(=N)N)C(=O)N[C@@H](CC(=O)O)C(=O)N[C@@H](Cc1ccccc1)C(=O)N[C@H](C(=O)N[C@@H](C)C(=O)N[C@@H](Cc1c[nH]c2ccccc12)C(=O)N[C@@H](CC(C)C)C(=O)N[C@@H](CCC(=O)O)C(=O)N[C@@H](C)C(=O)NCC(=O)NCC(N)=O)C(C)C)C(=O)O` [g798] (H-HSQGTFTSDK([γGlu-Palmitoyl])SKYLDSERARDFVAWLEAGG-NH2; N-terminus assumed), for which the EC50 at Human GIPr (Table 4, read-out: hGIPR EC50) was found to be 1.51 nM; on Human GLP1R (Table 4, read-out: hGLP1R EC50), 0.00907 nM.

Turning to `CCCCCCCCCCCCCCCC(=O)N[C@@H](CCC(=O)NCCCC[C@H](NC(=O)[C@H](CC(=O)O)NC(=O)[C@H](CO)NC(=O)[C@@H](NC(=O)[C@H](Cc1ccccc1)NC(=O)[C@@H](NC(=O)CNC(=O)[C@H](CCC(N)=O)NC(=O)[C@H](CO)NC(=O)[C@@H](N)Cc1c[nH]cn1)[C@@H](C)O)[C@@H](C)O)C(=O)N[C@@H](CO)C(=O)N[C@@H](CCCNC(=N)N)C(=O)N[C@@H](Cc1ccc(O)cc1)C(=O)N[C@@H](CC(C)C)C(=O)N[C@@H](CC(=O)O)C(=O)N[C@@H](CO)C(=O)N[C@@H](CCC(=O)O)C(=O)N[C@@H](CCCNC(=N)N)C(=O)N[C@@H](C)C(=O)N[C@@H](CCCNC(=N)N)C(=O)N[C@@H](CC(=O)O)C(=O)N[C@@H](Cc1ccccc1)C(=O)N[C@H](C(=O)N[C@@H](C)C(=O)N[C@@H](Cc1c[nH]c2ccccc12)C(=O)N[C@@H](CC(C)C)C(=O)N[C@@H](CCC(=O)O)C(=O)N[C@@H](C)C(=O)NCC(=O)NCC(N)=O)C(C)C)C(=O)O` [g848] (H-HSQGTFTSDK([γGlu-Palmitoyl])SRYLDSERARDFVAWLEAGG-NH2; N-terminus assumed), the EC50 on Human GIPr (Table 4, read-out: hGIPR EC50) was determined as 2.77 nM; on Human GLP1R (Table 4, read-out: hGLP1R EC50), 0.00942 nM.

As usually defined, the EC50 is the concentration at which the effect is half-maximal.
